Data as given in article PMC11188305, “Reproductive and fetal toxicity studies of histamine H3 receptor antagonist DL76 used in mice to prevent maximal electroshock-induced seizure” (Frontiers in Pharmacology, 2024).

Target: T1, hH1R (Homo sapiens, UniProt P35367)
T1 construct: expressed in transfected cells; host or cells: CHO K1 cells
Assay: hH1R radioligand binding, [3H]pyrilamine in CHO K1 cells
Conditions: protocol of Lazewska et al., 2017

T1 sequence (P35367 whole entry): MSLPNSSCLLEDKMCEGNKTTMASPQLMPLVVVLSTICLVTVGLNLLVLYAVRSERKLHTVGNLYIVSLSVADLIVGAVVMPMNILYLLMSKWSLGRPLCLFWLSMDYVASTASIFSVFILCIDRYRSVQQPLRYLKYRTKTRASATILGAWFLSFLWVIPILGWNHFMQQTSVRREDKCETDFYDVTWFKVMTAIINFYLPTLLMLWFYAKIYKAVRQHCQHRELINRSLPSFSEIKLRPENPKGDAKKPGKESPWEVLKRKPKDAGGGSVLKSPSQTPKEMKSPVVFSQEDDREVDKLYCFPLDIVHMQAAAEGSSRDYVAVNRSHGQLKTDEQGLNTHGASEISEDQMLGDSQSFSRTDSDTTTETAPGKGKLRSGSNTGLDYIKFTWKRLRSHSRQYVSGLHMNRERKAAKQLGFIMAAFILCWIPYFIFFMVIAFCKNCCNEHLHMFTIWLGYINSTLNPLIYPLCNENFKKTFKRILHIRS

With `CC(C)(C)c1ccc(OCCCN2CCCCC2)cc1` [DL76, 1-(3-(4-tert-butyl-phenoxy)propyl) piperidine] the Ki was 0.849 ± 0.067 µM.
